Source: patent EP2386565A2, “Compounds and methods to inhibit or augment an inflammatory response” (Cambridge Enterprise Ltd., priority 1999, dated 2000)
Non-standard residues stand in square brackets, D forms with d. Residues, ends and D or L forms follow the SMILES beside them. No end group written: not given here. *: point of attachment. Biotin = O=C1N[C@H]2[C@H](CS[C@H]2CCCCC(=O)*)N1

Legend:
gp120 = settings: ns = not significant; >100 = ED50 not determined
Method: Binding assays. Cells (either Jurkat T-cells or THP-1 cells) were grown in RPMI 1640 medium supplemented with 10% fetal calf serum, 2 mM glutamine, 20 µM β-mercaptoethanol, 100 U/ml penicillin and 100 µg/ml streptomycin and maintained between 2 × 10^5 and 1 × 10^6 cells/ml. Prior to performing a binding assay, cells were spun out (100 × g; 4 minutes) and washed 3 times in ice-cold PBS. A volume of cell suspension in PBS containing 10^6 cells (for Jurkat cells) or 4 × 10^5 cells (for THP-1 cells) was pipetted into each well of a V-bottom 96-well plate (Gibco BRL) and spun out (100 x g; 4 minutes). Triplicate wells were then resuspended in 100 µl binding medium (PBS pH 7.2 containing 0.1% fatty acid-free bovine serum albumin (BSA)) containing labeled peptide in the presence or absence of various concentrations of unlabeled peptide. The plate was then incubated on ice for 90 minutes. Cells were washed 3 times with 380 µl of ice-cold PBS, spinning out the cells each time (100 × g; 4 minutes), and resuspended in 100 µl binding medium containing streptavidin-peroxidase (Amersham International) at 1:1000 dilution. Cells were incubated for a further 15 minutes on ice to allow labeling of any bound biotinylated peptide, then washed 4 times as above. Cells were then incubated with 200 µl TMB substrate (K-Blue, Bionostics) for 20 minutes at room temperature, and the reaction stopped by addition of 50 µl 2 M HCl. The plate was spun (3,000 × g; 3 minutes) and 200 µl of the colored product was transferred to an empty 96-well ELISA plate and the absorbance at 450 nm determined. For each assay, the absorbance of a blank reaction (no peptide added) was subtracted from all readings before further analysis.
Binding experiments with labeled peptide 2 were performed with 10 nM labeled peptide in each reaction.

[1] = tested on: MCP-1 induced THP-1 migration; experiment: THP-1 trans-well migration assay, MCP-1 as chemoattractant; type: cell-based, human
Method: (§1) To determine whether an agent inhibits a chemokine-induced activity, such as macrophage recruitment, varying amounts of the agent are mixed with cells in the presence of a known chemoattractant. For example, a range of known concentrations of an agent, e.g., a chemokine peptide, is incubated with a defined number (e.g., 10^4 - […]) of human THP-1 monocyte cells in individual wells of the top compartment of a trans-well plate. Chemokine (such as MCP-1, MIP1α, IL8 or SDF-1α), at a concentration known to cause significant migration of THP-1 cells in the trans-well migration assay, is placed in the lower compartment (Figure 1). Cells are then incubated at 37°C for a period sufficient to allow migration, e.g., 4 hours. After incubation, the cells are gently removed from the top of the filter with a pipette, 20 µl of 20 mM EDTA in simple PBS is added into each top well, and incubated for 20 minutes at 4°C. The filter is carefully flushed with media using a gentle flow, and removed. A standard curve consisting of a two-fold dilution series of THP-1 cells (in 29 µl) is prepared to accurately quantify the number of cells that have migrated. Migrated cells are stained with 3 µl of MTT stock dye solution which is added directly into each well (5 mg/ml in RPMI-1640 without phenol red, Sigma Chemical Co.) and incubated at 37°C for 4 hours. The media is carefully aspirated from each well, and the converted dye is solubilized by 20 µl of DMSO. Absorbance of converted dye is measured at a wavelength of 595 nm using an ELISA plate reader. The number of migrated cells in each well is then determined by interpolation of the standard curve (see also Imai et al.,J. Biol. Chem., 272, 15036 (1997)).
Any method suitable for counting cells can be used, for example, counting with a hemocytometer, incubation of the cells with MTT (see above), or FACS analysis. A negative control assay is also performed, using TGF-β or another non-chemokine chemoattractant (e.g., IL1β or TNFα). To assess whether the agent is cytotoxic, the same concentrations of agent are incubated with THP-1 cells. Agents which 1) are not cytotoxic at levels which inhibit migration, 2) are ineffective at inhibiting the negative control-induced migration, and 3) reduce or inhibit chemokine-induced THP-1 migration, are agents which fall within the scope of the invention.
For this assay, THP-1 cells were maintained at a density of 4 × 10^5 cells per ml in RPMI-1640 supplemented with 10% fetal calf serum + 20 µM 2-mercaptoethanol. Chemotaxis was induced in a 96-well disposable chemotaxis chamber fitted with a 5 µM polycarbonate filter (PVP free, ChemoTX, Neuroprobe Inc., Cabin John). […] The framed filter was aligned with the holes in the corner of the filter frame and placed over the wells.
(§2) Five × 10^4 THP-1 cells in 25 µl of RPMI-1640 were added to the upper compartment. Peptides were dissolved in Milli Q water and then serially diluted in culture medium. In most cases, the serially diluted peptides were added to the upper compartment of the chemotaxis chamber. The chamber was incubated at 37°C in a humidified atmosphere of 5% CO2 for 4 hours.
After incubation, the cells were gently removed from the top of the filter with a pipette, 20 µl of 20 mM EDTA in PBS was added into each top well, and the mixture was incubated for 20 minutes at 4°C. The filter was then carefully flushed with media using a gentle flow, and removed. A standard curve was prepared to accurately quantify the number of THP-1 cells that had migrated. The curve was based on a two-fold dilution series of THP-1 cells (top standard 100,000 cells in 29 µl). Cells which had migrated, and in separate wells, the cells in the standards, were stained with 3 µl of MTT stock solution which was added directly into each well (5 mg/ml in RPMI 1640 without phenol red, Sigma Chemical Co.) and incubated at 37°C for 4 hours. The media was carefully aspirated from each well, and the converted dye was solubilized by 20 µl of DMSO. […]

[2] = tested on: SDF-1α induced THP-1 migration; experiment: THP-1 trans-well migration assay, SDF-1α as chemoattractant; type: cell-based, human; settings: inhibition of THP-1 migration; n.s./ns = not statistically significant
Method: as §1
(§3) For this assay, THP-1 cells were maintained at a density of 4 × 10^5 cells per ml in RPMI-1640 supplemented with 10% fetal calf serum + 20 µM 2-mercaptoethanol. Chemotaxis was induced in a 96-well disposable chemotaxis chamber fitted with a 5 µM polycarbonate filter (PVP free, ChemoTX, Neuroprobe Inc., Cabin John). Twenty-nine µl of chemoattractant (recombinant human chemokine; 50 ng/ml, i.e., 5.9 nM) or control (100 ng/ml TGFβ) was added to the lower compartment of each well. The framed filter was aligned with the holes in the corner of the filter frame and placed over the wells.
as §2
(§4) After incubation, the cells were gently removed from the top of the filter with a pipette, 20 µl of 20 mM EDTA in PBS was added into each top well, and the mixture was incubated for 20 minutes at 4°C. The filter was then carefully flushed with media using a gentle flow, and removed. A standard curve was prepared to accurately quantify the number of THP-1 cells that had migrated. The curve was based on a two-fold dilution series of THP-1 cells (top standard 100,000 cells in 29 µl). Cells which had migrated, and in separate wells, the cells in the standards, were stained with 3 µl of MTT stock solution which was added directly into each well (5 mg/ml in RPMI 1640 without phenol red, Sigma Chemical Co.) and incubated at 37°C for 4 hours. The media was carefully aspirated from each well, and the converted dye was solubilized by 20 µl of DMSO. Absorbance of converted dye was measured at a wavelength of 595 nm using an ELISA plate reader. The number of cells that had migrated in each well was determined by interpolation of the standard curve.
(§5) To investigate the receptor specificity of peptide 3 inhibition, the ED50 was determined for peptide 3(1-12)[MCP-1] (SEQ ID NO:1) inhibition of THP-1 migration induced by chemokines which signal through different receptors than MCP-1 receptors. […]

HIV = type: cell-based; settings: ns = not significant
[3] = tested on: MIP1α induced THP-1 migration; experiment: THP-1 trans-well migration assay, MIP1α as chemoattractant; type: cell-based, human; settings: inhibition of THP-1 migration; n.s./ns = not statistically significant
Method: as §1, §3, §2, §4, §5

[4] = Pharmacokinetics of radiolabeled D-ala peptide after IV or SQ bolus; type: in vivo, mice
Method: When ^3H-D-ala peptide 3(1-12)[MCP-1] (^3H-D-ala was attached to Asp) was given as an intravenous (IV) or subcutaneous (SQ) bolus to mice, peak serum concentrations were reached within 1 hour. This radiolabeled peptide was rapidly excreted (approximately 4 hours), primarily via the kidney. […] Direct comparison of ^3H-D-ala peptide 3(1-12)[MCP-1] (no DARC binding and rapidly cleared) and CRD-L-Leu4Ile11Cys13peptide 3(3-12)[MCP-1]

[5] = tested on: recombinant human chemokine receptors; experiment: Binding of biotin-labeled peptide to parental and chemokine receptor expressing HOS and CHO lines (125I-streptavidin); settings: labeled peptide at 10 µM
Text: HOS parental cells and CCR1-5 and CXCR4 transformants were obtained from the AIDS Reagent Program and were maintained as described on the supplier data sheet. Selection for the chemokine receptor-expressing plasmid was maintained throughout culture. CHO parental cells and CXCR1 and CXCR2 transformants were obtained form Dr. J. Navarro (Southwestern University, TX, USA) and maintained as described by the supplier under constant selection for expression of the chemokine receptor. All cells were split at about a 1:10 dilution approximately every 4 days, releasing the cells with EDTA solution and reseeding at known density. […]
The binding of labeled peptide 2 and labeled peptide 3 to the parental HOS, parental CHO and 8 chemokine receptor expressing lines was compared. […] The amount of streptavidin molecules added was calculated in each case to be approximately 50-fold in excess over the number of chemokine receptor sites. […]
To determine whether this apparent binding of peptide 2 was cell dependent, or whether it was binding to the plastic (or the some component of the fetal calf serum used during the cell culture), the following experiment was conducted. Three plates were evaluated: One had HOS parental cells, another had CCR5 over-expressors and the third had no cells but was incubated with the FCS-containing culture medium. […]

Molecule: CC[C@@H](C)[C@@H](NC(=O)[C@H](NC(=O)[C@@H](CO)NC(=O)[C@@H](CO)NC(=O)[C@@H](CCCCN)NC(=O)[C@@H](CO)NC(=O)[C@H]1CCCN1C(=O)[C@@H](CCCCN)NC(=O)[C@@H](CCC(=O)O)NC(=O)[C@@H](C)NC(=O)[C@H](NC(=O)[C@H](N)CS)C(C)C)[C@H](C)O)C(=O)N[C@H](CCCNC(=N)N)C(=O)N[C@H](CCCNC(=N)N)C(=O)N[C@H](Cc1ccc(O)cc1)C(=O)N[C@H](CO)C(=O)N[C@H](CS)C(=O)O [cvaekpsksstirrysc] (H-[dC][dV][dA][dE][dK][dP][dS][dK][dS][dS][dT][dI][dR][dR][dY][dS][dC]-OH; N-terminus and C-terminus assumed)
- gp120 ED-50 (µM) (gp120): ns
- ED50 (µM) versus MCP-1 ([1]; inhibition of THP-1 migration, n.s./ns = not statistically significant): ns
- ED50 (µM) versus SDF-1α [2]: ns
- % virus inhibition (HIV): ns
- ED50 (µM) versus MIP1α [3]: ns

Molecule: ^3H-D-ala peptide 3(1-12)[MCP-1]: ^3H-D-ala was attached to Asp (EICAD(3H‑D‑Ala)PKQKWVQ; not fully specified)
- time of excretion, primarily via the kidney [4]: approximately 4 hours
- time to peak serum concentrations [4]: ≤ 1 h

Molecule: labeled peptide: N-terminal biotin conjugate of the sequence n'-CLDPKQKWIQC-c' (Biotin-CLDPKQKWIQC; cysteine pairing not given here)
- binding to parental and chemokine receptor expressing cell lines (in words) [5]: No detectable binding
- ED50 for inhibition of MCP-1 induced migration ([1]; MCP-1 at 100 ng/ml in RPMI 1640 + 10% FCS, 4 hours, 5 µm filter): about 4 µM
